Experimental findings from paper PMC7799360, “Reprogramming immunosuppressive myeloid cells facilitates immunotherapy for colorectal cancer” (EMBO Molecular Medicine, 2020) are described below.

Structures can show the parent of a compound that is named as a salt. Where no end group is shown, it is not given here.

In one test the target is HTR1B (Homo sapiens, UniProt P28222). Description: LANCE Ultra cAMP assay. (In TR-FRET formats the signal depends on donor and acceptor labels being close together.)
In another test the target is CB2 (Homo sapiens, UniProt P34972). Description: LANCE Ultra cAMP assay. The settings on record: read-out: IC50 (known antagonists, TP-16); CB2.
In the next test the target is T1, OPRD1 (Homo sapiens, UniProt P41143).
T1 construct: Pharmaron (Beijing, China), contract laboratory
The experiment in a line: GPCR calcium flux assay. To be noted: read-out: Known agonists EC50. The test is classed as cell-based.

The next test concerns the target T2, AT1 (Homo sapiens, UniProt P30556).
T2 construct: Pharmaron (Beijing, China), contract laboratory
Description: GPCR calcium flux assay. The settings on record: read-out: Known agonists EC50. Format: cell-based. In general terms: A change in cytosolic calcium serves as a functional read-out for many receptors and channels.

Another test concerns the target T3, HTR2B (Homo sapiens, UniProt P41595).
T3 construct: Pharmaron (Beijing, China), contract laboratory
Description: GPCR calcium flux assay. The test is classed as cell-based.

The next test has as its target T4, BB1 (Homo sapiens, UniProt P28336).
T4 construct: Pharmaron (Beijing, China), contract laboratory
The experiment in a line: GPCR calcium flux assay. Format: cell-based. The settings on record: read-out: Known agonists EC50.

HTR1B, sequence (P28222 whole entry): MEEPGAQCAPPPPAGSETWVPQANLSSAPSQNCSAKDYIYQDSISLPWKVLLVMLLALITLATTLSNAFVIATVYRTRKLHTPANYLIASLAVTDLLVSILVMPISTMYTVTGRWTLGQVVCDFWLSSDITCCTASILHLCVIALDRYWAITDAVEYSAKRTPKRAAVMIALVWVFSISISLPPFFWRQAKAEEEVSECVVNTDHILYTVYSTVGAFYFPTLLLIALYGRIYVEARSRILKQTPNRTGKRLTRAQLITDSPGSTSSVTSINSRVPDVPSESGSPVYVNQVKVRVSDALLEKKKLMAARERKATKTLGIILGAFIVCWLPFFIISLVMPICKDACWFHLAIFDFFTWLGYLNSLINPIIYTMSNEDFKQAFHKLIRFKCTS
T1 sequence (P41143 whole entry, species assumed): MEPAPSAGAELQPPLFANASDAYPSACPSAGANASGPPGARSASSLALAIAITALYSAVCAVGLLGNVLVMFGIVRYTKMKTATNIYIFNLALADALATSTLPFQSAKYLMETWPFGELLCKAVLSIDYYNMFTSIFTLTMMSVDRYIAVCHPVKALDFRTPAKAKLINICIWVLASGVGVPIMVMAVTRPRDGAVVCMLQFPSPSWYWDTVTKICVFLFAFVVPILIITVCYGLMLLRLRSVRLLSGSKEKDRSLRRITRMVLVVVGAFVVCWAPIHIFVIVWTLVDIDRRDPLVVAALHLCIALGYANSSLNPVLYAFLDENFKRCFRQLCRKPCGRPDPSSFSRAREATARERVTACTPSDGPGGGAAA
CB2, sequence (P34972 whole entry, species assumed): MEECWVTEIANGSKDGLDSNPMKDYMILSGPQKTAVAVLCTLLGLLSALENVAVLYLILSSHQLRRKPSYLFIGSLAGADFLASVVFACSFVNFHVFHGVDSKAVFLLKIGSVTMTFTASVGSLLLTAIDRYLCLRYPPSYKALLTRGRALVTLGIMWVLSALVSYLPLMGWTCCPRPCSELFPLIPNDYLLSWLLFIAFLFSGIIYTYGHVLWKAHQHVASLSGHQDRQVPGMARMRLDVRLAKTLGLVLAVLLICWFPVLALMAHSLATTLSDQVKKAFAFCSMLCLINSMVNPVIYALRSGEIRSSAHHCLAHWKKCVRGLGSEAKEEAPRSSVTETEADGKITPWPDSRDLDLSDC
T2 sequence (P30556 whole entry): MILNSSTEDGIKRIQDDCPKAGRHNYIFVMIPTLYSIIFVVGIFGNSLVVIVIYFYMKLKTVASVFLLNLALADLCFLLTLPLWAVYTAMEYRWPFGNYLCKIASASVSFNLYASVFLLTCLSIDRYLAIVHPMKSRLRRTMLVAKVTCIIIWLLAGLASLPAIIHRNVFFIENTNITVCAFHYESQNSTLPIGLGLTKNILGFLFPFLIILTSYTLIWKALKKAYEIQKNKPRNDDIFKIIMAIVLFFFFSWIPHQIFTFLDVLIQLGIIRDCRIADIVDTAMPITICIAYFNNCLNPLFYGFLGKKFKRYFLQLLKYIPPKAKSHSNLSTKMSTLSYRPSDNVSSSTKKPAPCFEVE
T4 sequence (P28336 whole entry): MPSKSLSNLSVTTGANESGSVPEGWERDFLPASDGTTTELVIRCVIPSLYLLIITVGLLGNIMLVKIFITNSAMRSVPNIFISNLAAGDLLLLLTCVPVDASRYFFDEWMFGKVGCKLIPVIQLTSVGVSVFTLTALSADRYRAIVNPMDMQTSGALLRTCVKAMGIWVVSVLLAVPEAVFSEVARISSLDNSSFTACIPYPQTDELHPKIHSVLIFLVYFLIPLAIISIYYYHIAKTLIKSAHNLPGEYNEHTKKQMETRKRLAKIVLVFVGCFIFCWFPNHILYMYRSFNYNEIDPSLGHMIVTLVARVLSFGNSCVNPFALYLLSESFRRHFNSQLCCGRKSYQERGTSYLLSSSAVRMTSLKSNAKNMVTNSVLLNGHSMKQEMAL
T3 sequence (P41595 whole entry, species assumed): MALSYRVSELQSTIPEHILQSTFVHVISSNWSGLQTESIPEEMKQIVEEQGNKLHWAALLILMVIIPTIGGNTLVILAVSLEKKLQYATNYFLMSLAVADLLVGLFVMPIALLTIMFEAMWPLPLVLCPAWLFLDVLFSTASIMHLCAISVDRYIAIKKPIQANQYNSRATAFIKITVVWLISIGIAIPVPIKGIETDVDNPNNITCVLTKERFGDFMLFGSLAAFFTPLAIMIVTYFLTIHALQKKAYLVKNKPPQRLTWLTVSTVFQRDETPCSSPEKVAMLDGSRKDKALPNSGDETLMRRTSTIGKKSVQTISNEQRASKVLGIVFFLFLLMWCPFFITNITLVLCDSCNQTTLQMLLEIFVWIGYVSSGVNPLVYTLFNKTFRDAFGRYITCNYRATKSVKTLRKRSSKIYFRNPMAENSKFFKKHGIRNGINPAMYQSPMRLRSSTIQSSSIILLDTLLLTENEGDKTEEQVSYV

As usually defined, the EC50 is the concentration needed to bring the measured effect to its halfway point. `COc1ccc2[nH]cc(C3=CCNCC3)c2c1` [RU24969] showed a 50% effective concentration (EC50) at HTR1B of 0.018 µM.

In general, IC50 refers to the concentration that gives 50% inhibition. As for `COc1ccc(C(=O)c2c(C)n(CCN3CCOCC3)c3cc(I)ccc23)cc1` [AM630, reference compound], the IC50 at CB2 came out at 0.26 µM. As for `CCN(CC)C(=O)c1ccc(C2=CC3(CCNCC3)Oc3cccc(O)c32)cc1` [ADL-5859, reference compound], the EC50 at OPRD1 stood at 0.266 µM.

Consider DRVYVHPF [Angiotensin II 5-valine], for which the EC50 on AT1 was found to be 0.0002 µM.

Take `Cc1nc2sccn2c(=O)c1CCN1CCC(=C(c2ccc(F)cc2)c2ccc(F)cc2)CC1` [Ritanserin, reference compound]: the IC50 at HTR2B was 0.0308 µM. Take `CSCC[C@H](NC(=O)[C@H](Cc1ccccc1)NC(=O)[C@H](Cc1c[nH]cn1)NC(=O)CNC(=O)[C@@H](NC(=O)[C@H](C)NC(=O)[C@H](Cc1c[nH]c2ccccc12)NC(=O)[C@H](CC(C)C)NC(=O)[C@H](CC(N)=O)NC(=O)CN)[C@@H](C)O)C(N)=O` [Neuromedin B, reference compound]: the half-maximal effective concentration (EC50) on BB1 amounted to 0.0002 µM.

Regarding `CN(C)CCCc1cc(C(=O)Nc2ccc(-c3ccncc3)cc2)ccc1O` [GR 55562 dihydrochloride], at HTR1B (read-out: IC50 (known antagonists, TP-16), HTR1B), the IC50 stood at 0.035 µM.
